Experimental data: patent US11958842B2, “Substituted phenazines and methods of treating cancer and bacterial diseases” (Adjutec Pharma AS, priority 2016, dated 2024)
Like-named read-outs stand apart in the source and are kept apart here.

How the values were obtained:
Type in all cases: cell-based
[1] = tested on: human acute myeloid leukemia cell line MOLM-13; experiment: Cytotoxicity, WST-1 and nuclear morphology (Example 73)
Procedure: (§1) All cell culturing media and serum were from Sigma-Aldrich (St. Louis, Mo., USA). Product Nos. are given in parentheses. The human acute myeloid leukemia cell line MOLM-13 was cultured in RPMI medium (R5886) enriched with […] (F7524) and 0.2 mM L-glutamine (G7513). The normal rat kidney epithelial (NRK) and the rat cardiomyoblast (H9c2) cells were cultured in DMEM medium (D6429) enriched with 10% fetal bovine serum (F7524). All cell lines were additionally supplemented with 100 IU/mL penicillin and […] (P0781). The cells were cultured in a humidified atmosphere either under 2% or 20% O2 at 37° C.
(§2) All analogues were dissolved in DMSO (D5879, Sigma-Aldrich) at concentrations between 2.5 and 20 mM before testing. For cytotoxic testing, the MOLM-13 cells were seeded as 20,000 cells/well, while NRK and H9c2 cells were seeded as 5,000 cells/well in 96-well Microplates (#167008, Thermo Scientific™ Nunc™ MicroWell™) with 100 μL medium/well. The cells were exposed to various concentrations of iodinin or its analogues for 24 hrs before the cell proliferation reagent WST-1 was used to assess the viability, in accordance with the manufacturer's instructions (11644807001, Roche Diagnostics, Sigma-Aldrich). The cells were next fixed in 2% buffered formaldehyde (pH 7.4) with the DNA-specific dye Hoechst 33342 (Polysciences Inc.) and assessed for cell death by UV-microscopy based on nuclear morphology. The highest concentration of analogue corresponded to 1% of DMSO, which alone gave less than 7% cell death as judged by nuclear morphology.
(§3) EC50 values were determined by analyses of WST-1 signal results as well as microscopic evaluation of cell death by four-parameter regression analyses using the SigmaPlot software (Systat Software inc. San Jose, Calif.):
(§4) [formula] where Y is the response (WST-1 signal or percent apoptosis), min and max are minimum and maximum response, X is concentration of analogue, EC50 equals the point of inflection, i.e. the point that gives half of maximum response, and h is the Hill's slope of the curve. The two methods gave consistent response curves for each analogue. In the case of Tirapazamine, where its colour interfered with the WST-1 signal, only microscopic evaluation of Hoechst stained cells was used in order to calculate its EC50 values.

[2] = tested on: normal rat kidney epithelial (NRK) cells; experiment: as above
Procedure: as §1, §2, §3, §4

[3] = tested on: rat cardiomyoblast (H9c2) cells; experiment: as above; conditions: read-out: EC50 (μM) H9c2 19% O2
Procedure: as §1, §2, §3, §4

Molm13 cells = experiment: Anti-AML activity, WST-1 viability (Example 72); conditions: Homo sapiens
Procedure: Dry powder of analogs were dissolved in DMSO. IPC-18 rat AML cells (Lacaze, N. et al. Leuk. Res. 1983, 7, 145.) were cultured in DMEM medium (Sigma-Aldrich, St. Louis, Mo., USA) supplemented with 10% horse serum (Invitrogen, Carlsbad, Calif., USA), and antibiotics (50 U/mL of penicillin and 0.05 mg/mL streptomycin). Molm13 (Matsuo, Y. et al. Leukemia 1997, 11, 1469.) cells were cultured in RPMI supplemented with antibiotics (50 U/mL of penicillin and 0.05 mg/mL streptomycin) and 10% fetal bovine serum (FBS, Invitrogen, Carlsbad, Calif.) and kept in exponential growth before the experiments. Dilution series of iodinin analogs were added to medium and cell suspension added to reach a final cell concentration of 150 000 cells/ml in 0.1 mL in a 96 well tissue culture plate. […] The cells were incubated with the iodinin analogs for 22 h before WST-1 was added according to the manufacturers protocol, and the cells incubated further in 2 h. Mitochondrial conversion of WST-1 to its colored metabolite was measured by a plate reader at 450 nm, with 620 nm as the reference wavelength. The cells were next fixed by adding 4% buffered formaldehyde (PBS, pH 7.4, supplemented with 0.01 mg/mL Hoechst 33342 for nuclear visualization) to the cell suspension at 1:1 (v/v) ratio (final concentration of formaldehyde:[…]). The cells' nuclear and surface morphology were examined microscopically and results compared with the WST-1 viability assay. The results given in Table I are based on WST-1 data.

[4] = Homo sapiens, MOLM-13, 2% O2, 24 hours of incubation, read-out: EC50 (μM) MOLM-13 2% O2
[5] = Homo sapiens, MOLM-13, 19% O2, 24 hours of incubation, read-out: EC50 (μM) MOLM-13 19% O2
[6] = Rattus norvegicus, 2% O2, 24 hours of incubation, read-out: EC50 (μM) NRK 2% O2
[7] = Rattus norvegicus, 19% O2, 24 hours of incubation, read-out: EC50 (μM) NRK 19% O2
[8] = Rattus norvegicus, H9c2, 19% O2, 24 hours of incubation
[9] = Homo sapiens, MOLM-13, 24 h, read-out: EC50 (μM) MOLM-13 2% O2
[10] = Homo sapiens, MOLM-13, 24 h, read-out: EC50 (μM) MOLM-13 19% O2
[11] = MOLM-13, 2% O2, 24 hours of incubation, read-out: EC50 (μM) MOLM-13 2% O2
[12] = MOLM-13, 19% O2, 24 hours of incubation, read-out: EC50 (μM) MOLM-13 19% O2
[13] = Rattus norvegicus, 24 h, read-out: EC50 (μM) NRK 2% O2, NRK, 2% O2, 24 hours of incubation
[14] = Rattus norvegicus, 24 h, read-out: EC50 (μM) NRK 19% O2, NRK, 19% O2, 24 hours of incubation
[15] = H9c2, 19% O2, 24 hours of incubation
[16] = Molm 13 cells, 2% O2, 24 h of incubation, WST-1, read-out: Molm 13 IC50 2% O2
[17] = Molm 13 cells, 20% O2, 24 h of incubation, WST-1, read-out: Molm 13 IC50 20% O2

SMILES | EC50 [1, 4] [µM] | EC50 [1, 5] [µM] | EC50 [2, 6] [µM] | EC50 [2, 7] [µM] | EC50 [3, 8] [µM] | also measured
CCOC(=O)COc1cccc2c1[n+]([O-])c1cc(C)c(C)cc1[n+]2[O-] [Example 6b, 1-(2-ethoxy-2-oxoethoxy)-7,8-dimethylphenazine 5,10-dioxide] | 6.3 ± 0.25 | 8.3 ± 0.78 | > 100 | 140 ± 2 | > 100 | –
Nc1ccc2c(c1)[n+](O)c1ccccc1[n+]2[O-] [Example 67, 2-aminophenazine 5,10-dioxide] | 7.6 ± 0.89 | 31 ± 1.4 | – | – | 80 ± 8.9 | –
CN1CCN(C(=O)Oc2cccc3c2[n+]([O-])c2cc(Br)c(Br)cc2[n+]3[O-])CC1 [Example 8g, 7,8-dibromo-1-((4-methylpiperazine-1-carbonyl)oxy)phenazine 5,10-dioxide] | – | – | – | – | – | EC50 [1, 9]: 0.7 ± 0.04 µM; EC50 [1, 10]: 0.89 ± 0.03 µM; EC50 ([2]; read-out: EC50 (μM) NRK 2% O2, 2% O2, 24 hours of incubation): 62 ± 1.3 µM; EC50 ([2]; read-out: EC50 (μM) NRK 19% O2, 19% O2, 24 hours of incubation): 49 ± 1.8 µM; EC50 ([3]; Rattus norvegicus, H9c2, 24 h): 64 ± 9.2 µM
Cc1cc2c(cc1C)[n+](O)c1cc(OC(=O)N3CCN(C)CC3)ccc1[n+]2[O-] [Example 65, 2,3-dimethyl-7-((4-methylpiperazine-1-carbonyl)oxy)phenazine 5,10-dioxide] | – | – | – | – | – | EC50 [1, 9]: 2.5 ± 0.24 µM; EC50 [1, 10]: 17 µM; EC50 ([3]; Rattus norvegicus, H9c2, 24 h): 20 ± 2.4 µM
CC(C)(C)OC(=O)COc1cccc2c1[n+]([O-])c1cccc(OCC(=O)OC(C)(C)C)c1[n+]2[O-] [Example 36, 1,6-bis(2-(tert-butoxy)-2-oxoethoxy)phenazine 5,10-dioxide] | 3.3 ± 0.22 | 4.2 ± 0.2 | 27 ± 1.8 | 27 ± 1.2 | – | –
Cc1c(C)[n+](O)c2c(O)cccc2[n+]1[O-] [Example 12, 5-hydroxy-2,3-dimethylquinoxaline 1,4-dioxide] | > 200 | > 200 | – | – | – | –
CCOC(=O)COc1ccc2c(c1)[n+](O)c1ccccc1[n+]2O [Example 62, 2-(2-ethoxy-2-oxoethoxy)phenazine 5,10-dioxide] | 15 ± 0.7 | 32 ± 5 | – | – | 45 ± 4.8 | –
O=C(Oc1cccc2c1[n+]([O-])c1ccccc1[n+]2[O-])N1CCCC1 [Example 24, 1-((pyrrolidine-1-carbonyl)oxy)phenazine 5,10-dioxide] | – | – | – | – | – | EC50 [1, 11]: 1.2 ± 0.15 µM; EC50 [1, 12]: 1.5 ± 0.18 µM; EC50 [2, 13]: 21 ± 2.4 µM; EC50 [2, 14]: 18 ± 0.6 µM; EC50 [3, 15]: 13 ± 0.5 µM
Cc1cc2c(cc1C)[n+]([O-])c1cc(O)ccc1[n+]2[O-] [Example 64, 7-hydroxy-2,3-dimethylphenazine 5,10-dioxide] | 50 ± 3.8 | 117 ± 1 | – | – | > 200 | –
CC(C)(C)OC(=O)COc1cccc2c1[n+]([O-])c1ccccc1[n+]2O [Example 19, 1-(2-(tert-butoxy)-2-oxoethoxy)phenazine 5,10-dioxide] | 1.9 ± 0.11 | 2.2 ± 0.09 | 25 ± 1.9 | 26 ± 0.7 | 20 ± 2.1 | –
[O-][n+]1c2ccccc2[n+]([O-])c2cc(O)ccc21 [Example 60, 2-hydroxyphenazine 5,10-dioxide] | 45 ± 3.5 | 128 ± 3 | – | – | > 200 | –
[O-][n+]1c2ccccc2[n+]([O-])c2c(O)cccc21 [Example 17, 1-hydroxyphenazine 5,10-dioxide] | 12 ± 0.04 | 11 ± 1.8 | > 100 | 79 ± 4.2 | > 100 | –
CC(=O)Oc1cccc2c1[n+]([O-])c1cccc(O)c1[n+]2[O-] [Example 5d, 1-Acetoxy-6-hydroxyphenazine 5,10-dioxide] | – | – | – | – | – | IC50 (Molm13 cells; [16]): 5.61 µM; IC50 (Molm13 cells; [17]): 5.62 µM
Cc1c(C)[n+]([O-])c2c(OC(=O)N3CCOCC3)cccc2[n+]1[O-] [Example 69, 2,3-dimethyl-5-((morpholine-4-carbonyl)oxy)quinoxaline 1,4-dioxide] | – | – | – | – | – | EC50 [1, 11]: > 200 µM; EC50 [1, 12]: > 200 µM
O=C(Oc1cccc2c1[n+]([O-])c1cccc(OC(=O)N3CCCC3)c1[n+]2[O-])N1CCCC1 [Example 16a, 1,6-bis((pyrrolidine-1-carbonyl)oxy)phenazine 5,10-dioxide] | – | – | – | – | – | IC50 (Molm13 cells; MOLM-13, 24 h, read-out: Molm 13 IC50 20% O2): 0.95 µM
Cc1c(C)[n+]([O-])c2c(OC(=O)N3CCN(C)CC3)cccc2[n+]1[O-] [Example 13, 2,3-dimethyl-5-((4-methylpiperazine-1-carbonyl)oxy)quinoxaline 1,4-dioxide] | – | – | – | – | – | EC50 [1, 11]: > 200 µM; EC50 [1, 12]: > 200 µM
[O-][n+]1c2ccccc2[n+]([O-])c2c(O)cccc21 [Example 4a, 1-hydroxyphenazine 5,10-dioxide] | – | – | – | – | – | IC50 (Molm13 cells; [17]): 4.5 µM
CN1CCN(C(=O)Oc2ccc3c(c2)[n+](O)c2ccccc2[n+]3O)CC1 [Example 63, 2-((4-methylpiperazine-1-carbonyl)oxy)phenazine 5,10-dioxide] | – | – | – | – | – | EC50 [1, 9]: 3.5 ± 0.19 µM; EC50 [1, 10]: 14 ± 0.4 µM; EC50 ([3]; Rattus norvegicus, H9c2, 24 h): 53 ± 0.3 µM
O=C(Oc1cccc2c1[n+]([O-])c1cccc(O)c1[n+]2[O-])N1CCCC1 [Example 8j, 1-hydroxy-6-((pyrrolidine-1-carbonyl)oxy)phenazine 5,10-dioxide] | – | – | – | – | – | EC50 [1, 11]: 0.79 ± 0.09 µM; EC50 [1, 12]: 0.86 ± 0.05 µM; EC50 [2, 13]: 15 ± 1 µM; EC50 [2, 14]: 9.6 ± 0.38 µM; EC50 [3, 15]: 12 ± 0.7 µM
COc1cccc2nc3c(OC)cccc3nc12 [Example 1a, 1,6-dimethoxyphenazine] | 84 ± 6 | 72 ± 14 | – | – | – | IC50 (Molm13 cells; [16]): > 10 µM; IC50 (Molm13 cells; [17]): > 10 µM
CCN(CC)C(=O)COc1cccc2c1[n+]([O-])c1ccccc1[n+]2[O-] [Example 21, 1-(2-(diethylamino)-2-oxoethoxy)phenazine 5,10-dioxide] | 1.4 ± 0.15 | 1.2 ± 0.08 | 16 ± 1 | 13 ± 0.01 | 23 ± 0.1 | –
Cc1cc2c(cc1C)[n+]([O-])c1c(O)cccc1[n+]2[O-] [Example 48, 1-hydroxy-7,8-dimethylphenazine 5,10-dioxide] | 2.3 ± 0.1 | 2.8 ± 0.25 | > 50 | > 50 | > 50 | –
O=C(O)COc1cccc2c1[n+]([O-])c1cccc(OCC(=O)O)c1[n+]2[O-] [Example 37, 1,6-bis(carboxymethoxy)phenazine 5,10-dioxide] | 39 ± 9 | 18 ± 3 | > 200 | > 200 | – | –
